In patent publication US11419902B2, “Compositions comprising bacterial strains” (4D Pharma Research Limited, priority 2018, dated 2022):

Legend:
splenocytes = assay: Spleen cytokine assay (ex-vivo splenocyte assay); type: in vivo, mouse; settings: mice administered MRx0029
Method: Animals were allowed to habituate to their holding room for one week after arrival into the animal unit. They receive oral gavage (200 μL dose) of live biotherapeutics at a dose of 1×10^9 CFU for 6 consecutive days between 15:00 and 17:00. On day 7, the animals are decapitated, and tissues are harvested for experimentation.
Spleens were collected immediately in 5 mL RPMI media following sacrifice and cultured immediately. Spleen cells were first homogenised in this RPMI media, followed by 5 mins incubation with 1 ml of RBC lysis buffer (11814389001 ROCHE, Sigma). A further 10 ml of RPMI media was added, followed by 200G centrifugation for 5 mins. The supernatant was then filtered through 40 um strainer. Cells were counted and seeded (4,000,000/mL media). After 2.5 h of adaptation, cells were stimulated with lipopolysaccharide (LPS-2 μg/ml) or concanavalin A (ConA-2.5 μg/ml) for 24 h. Following stimulation, the supernatants were harvested to assess the cytokine release using Proinflammatory Panel 1 (mouse) V-PLEX Kit (Meso Scale Discovery, Maryland, USA) for TNF-α, IL-10, IL-1β, Interferon γ, CXCL2 and IL6. The analyses were performed using MESO QuickPlex SQ 120, SECTOR Imager 2400, SECTOR Imager 6000, SECTOR S 600.
The ex-vivo splenocyte assay involves challenging the splenocytes (cells isolated from the spleen—a main organ involved in immune defence), with a bacterio- or viral-mimetic challenge.

[1] = system: HT29 colorectal cancer cell line; assay: Clonogenic survival of HT29 cell line; type: cell-based; settings: HT29, relative to both negative controls (cell line only, and YCFA+ +DMSO)
Method: Cells were trypsinized and 200 cells/well were seeded in 12-well plates. After 48 h cells were treated with the appropriate drugs in absence (YCFA+) or presence of 10% bacterial supernatant and were re-fed every three days. On day 21 after seeding, cells were fixed in ice-cold methanol and stained with Crystal Violet blue. […] were counted and survival fraction was calculated as number of colonies divided by the number of plated cells (plating efficiency) of treated divided by the plating efficiency of control.
The effects of the following treatments were assessed on the HT29 colorectal cancer cell line (V600E oncogenic mutation in BRAF): (1) MRx0029; (2) Vemurafenib (VEMU) in YFCA+ medium; (3) VEMU and MRx0029; (4) Azacytidine-C (Aza-c) in YCFA+ medium; (5) Aza-c and MRx0029; (6) VEMU, Aza-c and MRx0029.

IL-8 = IL-8 secretion in MG U373 cells (ELISA); type: cell-based, human; settings: 10% bacteria supernatant 24 h, independently of the presence of LPS (1 ug/mL)
Method: MG U373 is a human glioblastoma astrocytoma derived from a malignant tumour and were purchased from Sigma-Aldrich (cat n. 08061901-1VL). MG U373 human glioblastoma astrocytoma cells were grown in MEM (Sigma Aldrich, cat n. M-2279) supplemented with 10% FBS, 1% Pen Strep, 4 mM L-Glut, 1×MEM Non-essential Amino Acid solution and 1× Sodium Piruvate.
Once grown the MG U373 cells were plated on 24-well plate at 100,000 cells/well. The cells were treated with LPS (1 ug/mL) alone or with 10% of bacteria supernatant from MRx0029 for 24 h. LPS is a known stimulator of proinflammatory cytokines such as IL-8. Afterwards the cell free supernatants were collected, centrifuged at 10,000 g for 3 min at 4° C. IL-8 was measured using Human IL-8 ELISA Kit from Peprotech (cat n. #900-K18) according to manufacturer instruction.

[2] = system: neuron specific enolase (NSE)/enolase 2; assay: Enolase 2 expression in SH-SY5Y cells (qPCR); type: cell-based; settings: 10% bacterial supernatants 17 h, vs YCFA+ culture control
Method: SH-SY5Y were plated in 6 well plates at a density of 0.5×10^6 cells. After 24 h, cells were treated in differentiation medium (growth medium containing 1% FBS) with 10% bacterial supernatants or YCFA+ for 17 h. Cells were collected, and total RNA was isolated according to the RNeasy mini kit protocol (Qiagen). cDNA was made using the High Capacity cDNA reverse transcription kit (Applied Biosystems). Gene expression was measured by qPCR. GAPDH was used as internal control. Fold change was calculated according to the 2^(−ΔΔct) method. Primer sets used are listed as SEQ ID NOs: 2, 3, 13 and 14.

With Megasphaera massiliensis MRx0029 the “interferon-γ production from splenocytes” value (splenocytes; following a challenge with LPS) was “reduction”, the “interleukin-1β production from splenocytes” value (splenocytes; following a challenge with LPS) was “reduction” and the “interleukin-6 production from splenocytes” value (splenocytes; following a challenge with LPS) was “reduction”. The “levels of the chemoattractant CXCL1 from splenocytes” value (splenocytes) was “increase in the levels of the chemoattractant CXCL1”, the clonogenic survival [1] was “decreased clonogenic survival” and the IL-8 secretion (IL-8) was “Increases IL-8 Secretion”. The “Enolase 2 expression” value [2] was “statistically-significant effect of suppressing”.
